Source: patent publication US9284321B2, “Piperazino[1,2-a]indol-1-ones and [1,4]diazepino[1,2-a]indol-1-one” (Hoffmann-La Roche Inc., priority 2012, dated 2016)

What was measured:
[1] = test system: human embryonic stem cell derived neural stem cells (NSCs); assay: Neural Stem Cell Proliferation Assay (neurogenesis assay, ATP levels by CellTiterGlo); format: cell-based; conditions: 96 h, compound concentration at which 150% activity of control (100%) is reached, NSC proliferation by ATP level after 4 days incubation, dose response 8 μM to 8 nM
Outline: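 Read-out is CellTiterGlo ATP luminescence after 4-day culture (37 °C, 5% CO2) of dual-SMAD-derived human ESC NSCs, dosed 4 h post-seeding at 8 μM to 8 nM (11 points, 2-fold). EC150 marks the concentration reaching 150% of the media-only control (0.25% DMSO).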

| melting point [°C] | SMILES | EC (150% of control) [1] [µM] |
| --- | --- | --- |
| 218 | Cc1c2n(c3c(-c4ccc(OC(F)(F)F)cc4)cc(C#N)cc13)CCCNC2=O [Example 201, 11-Methyl-1-oxo-7-[4-(trifluoromethoxy)-phenyl]-2,3,4,5-tetrahydro-[1,4]diazepino[1,2-a]indole-9-carbonitrile] | 0.048 |
| 294 | N#Cc1cc(-c2ccc(F)c(F)c2F)c2c(c1)cc1n2CCNC1=O [Example 202, 1-Oxo-6-(2,3,4-trifluorophenyl)-3,4-dihydro-2H-pyrazino[1,2-a]indole-8-carbonitrile] | 0.046 |
| 268 | N#Cc1cc(-c2ccc(F)nc2)c2c(c1)cc1n2CCNC1=O [Example 203, 6-(6-Fluoropyridin-3-yl)-1-oxo-3,4-dihydro-2H-pyrazino[1,2-a]indole-8-carbonitrile] | 0.36 |
| 347 | N#Cc1cc(-c2ccc(Cl)c(C(F)(F)F)c2)c2c(c1)cc1n2CCNC1=O [Example 204, 6-[4-Chloro-3-(trifluoromethyl)phenyl]-1-oxo-3,4-dihydro-2H-pyrazino[1,2-a]indole-8-carbonitrile] | 1.28 |
| 225 | Cc1c2n(c3c(-c4ccc(F)cc4F)cc(C#N)cc13)CCCNC2=O [Example 205, 7-(2,4-Difluorophenyl)-11-methyl-1-oxo-2,3,4,5-tetrahydro-[1,4]diazepino[1,2-a]indole-9-carbonitrile] | 0.031 |
| 257 | Cc1c2n(c3c(-c4ccc(Cl)cc4Cl)cc(C#N)cc13)CCCNC2=O [Example 206, 7-(2,4-Dichlorophenyl)-11-methyl-1-oxo-2,3,4,5-tetrahydro-[1,4]diazepino[1,2-a]indole-9-carbonitrile] | 0.031 |
| 259 | Cc1c2n(c3c(-c4ccc(Cl)cc4F)cc(C#N)cc13)CCCNC2=O [Example 207, 7-(4-Chloro-2-fluorophenyl)-11-methyl-1-oxo-2,3,4,5-tetrahydro-[1,4]diazepino[1,2-a]indole-9-carbonitrile] | 0.019 |
| 264 | Cc1c2n(c3c(-c4ccnc(F)c4)cc(C#N)cc13)CCCNC2=O [Example 208, 7-(2-Fluoropyridin-4-yl)-11-methyl-1-oxo-2,3,4,5-tetrahydro-[1,4]diazepino[1,2-a]indole-9-carbonitrile] | 0.049 |
| 280 | Cc1c2n(c3c(-c4ccc(F)nc4)cc(C#N)cc13)CCCNC2=O [Example 209, 7-(6-Fluoropyridin-3-yl)-11-methyl-1-oxo-2,3,4,5-tetrahydro-[1,4]diazepino[1,2-a]indole-9-carbonitrile] | 0.16 |
| 220 | COc1cc(-c2ccc(F)cc2)c2c(c1)cc1n2CCNC1=O [Example 210, 6-(4-Fluorophenyl)-8-methoxy-3,4-dihydro-2H-pyrazino[1,2-a]indol-1-one] | 2.29 |
| 246 | COc1cc(-c2ccc(Cl)cc2)c2c(c1)cc1n2CCNC1=O [Example 211, 6-(4-Chlorophenyl)-8-methoxy-3,4-dihydro-2H-pyrazino[1,2-a]indol-1-one] | 1.54 |
| 216 | COc1cc(-c2ccc(F)c(F)c2)c2c(c1)cc1n2CCNC1=O [Example 212, 6-(3,4-Difluorophenyl)-8-methoxy-3,4-dihydro-2H-pyrazino[1,2-a]indol-1-one] | 1.24 |
| 276 | COc1cc(-c2ccc(C(F)(F)F)cc2)c2c(c1)cc1n2CCNC1=O [Example 213, 8-Methoxy-6-[4-(trifluoromethyl)-phenyl]-3,4-dihydro-2H-pyrazino[1,2-a]indol-1-one] | 0.8 |
| 245.5 | N#Cc1cc(-c2ccc(Cl)cc2)c2c(c1)cc1n2CCCNC1=O [Example 214, 7-(4-Chlorophenyl)-1-oxo-2,3,4,5-tetrahydro-[1,4]diazepino[1,2-a]indole-9-carbonitrile] | 0.14 |
| 230 | N#Cc1cc(-c2ccc(F)cc2)c2c(c1)cc1n2CCCNC1=O [Example 215, 7-(4-Fluorophenyl)-1-oxo-2,3,4,5-tetrahydro-[1,4]diazepino[1,2-a]indole-9-carbonitrile] | 0.09 |
| 243 | O=C1NCCn2c1cc1cc(OC(F)(F)F)cc(-c3ccc(C(F)(F)F)cc3)c12 [Example 216, 8-(Trifluoromethoxy)-6-[4-(trifluoromethyl)-phenyl]-3,4-dihydro-2H-pyrazino[1,2-a]indol-1-one] | 0.022 |
| 224.5 | N#Cc1cc(-c2ccc(F)c(F)c2)c2c(c1)cc1n2CCCNC1=O [Example 217, 7-(3,4-Difluorophenyl)-1-oxo-2,3,4,5-tetrahydro-[1,4]diazepino[1,2-a]indole-9-carbonitrile] | 0.51 |

| melting point [°C] | SMILES | EC (150% of control) [1] [µM] |
| --- | --- | --- |
| 241.5 | N#Cc1cc(-c2ccc(C(F)(F)F)cc2)c2c(c1)cc1n2CCCNC1=O [Example 218, 1-Oxo-7-[4-(trifluoromethyl)-phenyl]-2,3,4,5-tetrahydro-[1,4]diazepino[1,2-a]indole-9-carbonitrile] | 0.45 |
| 217.5 | N#Cc1cc(-c2ccc(Cl)cc2F)c2c(c1)cc1n2CCCNC1=O [Example 219, 7-(4-Chloro-2-fluorophenyl)-1-oxo-2,3,4,5-tetrahydro-[1,4]diazepino[1,2-a]indole-9-carbonitrile] | 0.08 |
| 275 | N#Cc1cc(-c2ccnc(F)c2)c2c(c1)cc1n2CCCNC1=O [Example 220, 7-(2-Fluoropyridin-4-yl)-1-oxo-2,3,4,5-tetrahydro-[1,4]diazepino[1,2-a]indole-9-carbonitrile] | 0.5 |
| 216.5 | N#Cc1cc(-c2ccc(F)cc2F)c2c(c1)cc1n2CCCNC1=O [Example 221, 7-(2,4-Difluorophenyl)-1-oxo-2,3,4,5-tetrahydro-[1,4]diazepino[1,2-a]indole-9-carbonitrile] | 0.073 |
| 264 | N#Cc1cc(-c2cc(F)cc(F)c2)c2c(c1)cc1n2CCNC1=O [Example 222, 6-(3,5-Difluorophenyl)-1-oxo-3,4-dihydro-2H-pyrazino[1,2-a]indole-8-carbonitrile] | 0.22 |
| 248.5 | N#Cc1cc(-c2cccc(F)c2)c2c(c1)cc1n2CCNC1=O [Example 223, 6-(3-Fluorophenyl)-1-oxo-3,4-dihydro-2H-pyrazino[1,2-a]indole-8-carbonitrile] | 0.076 |
| 305 | N#Cc1cc(-c2ccc(N)nc2)c2c(c1)cc1n2CCNC1=O [Example 224, 6-(6-Aminopyridin-3-yl)-1-oxo-3,4-dihydro-2H-pyrazino[1,2-a]indole-8-carbonitrile] | 0.76 |
| 323.5 | N#Cc1cc(-c2cncnc2)c2c(c1)cc1n2CCNC1=O [Example 225, 1-Oxo-6-pyrimidin-5-yl-3,4-dihydro-2H-pyrazino[1,2-a]indole-8-carbonitrile] | 1.75 |
| 300.5 | N#Cc1cc(-c2ccc(Cl)nc2)c2c(c1)cc1n2CCNC1=O [Example 226, 6-(6-Chloropyridin-3-yl)-1-oxo-3,4-dihydro-2H-pyrazino[1,2-a]indole-8-carbonitrile] | 2.2 |
| 286 | N#Cc1cc(-c2ccnc(Cl)c2)c2c(c1)cc1n2CCNC1=O [Example 227, 6-(2-Chloropyridin-4-yl)-1-oxo-3,4-dihydro-2H-pyrazino[1,2-a]indole-8-carbonitrile] | 0.55 |
| 257.5 | N#Cc1cc(-c2ccc(CO)cc2)c2c(c1)cc1n2CCNC1=O [Example 228, 6-[4-(Hydroxymethyl)-phenyl]-1-oxo-3,4-dihydro-2H-pyrazino[1,2-a]indole-8-carbonitrile] | 0.041 |
| 272.5 | N#Cc1cc(-c2cccnc2)c2c(c1)cc1n2CCNC1=O [Example 229, 1-Oxo-6-pyridin-3-yl-3,4-dihydro-2H-pyrazino[1,2-a]indole-8-carbonitrile] | 0.94 |
| 300 | CC(C)(C)c1ccc(-c2cc(C#N)cc3cc4n(c23)CCNC4=O)cc1 [Example 230, 6-(4-tert-Butylphenyl)-1-oxo-3,4-dihydro-2H-pyrazino[1,2-a]indole-8-carbonitrile] | 0.14 |
| 290 | Cc1cc(-c2cc(C#N)cc3cc4n(c23)CCNC4=O)ccc1F [Example 231, 6-(4-Fluoro-3-methylphenyl)-1-oxo-3,4-dihydro-2H-pyrazino[1,2-a]indole-8-carbonitrile] | 0.058 |
| 369.5 | N#Cc1cc(-c2ccc([N+](=O)[O-])cc2)c2c(c1)cc1n2CCNC1=O [Example 232, 6-(4-Nitrophenyl)-1-oxo-3,4-dihydro-2H-pyrazino[1,2-a]indole-8-carbonitrile] | 0.02 |
| 278.5 | Cc1ccc(-c2cc(C#N)cc3cc4n(c23)CCNC4=O)cc1F [Example 233, 6-(3-Fluoro-4-methylphenyl)-1-oxo-3,4-dihydro-2H-pyrazino[1,2-a]indole-8-carbonitrile] | 0.052 |
| 193.5 | N#Cc1cc(-c2ccc([N+](=O)[O-])cc2)c2c(c1)cc1n2CCCNC1=O [Example 234, 7-(4-Nitrophenyl)-1-oxo-2,3,4,5-tetrahydro-[1,4]diazepino[1,2-a]indole-9-carbonitrile] | 0.21 |
